{
  "source": "paper PMC11456916",
  "about": "“A screen for cell envelope stress uncovers an inhibitor of prolipoprotein diacylglyceryl transferase, Lgt, in Escherichiacoli” (iScience, 2024)",
  "assay_type_in_all_cases": "cell-based",
  "key": {"[1]": {"test_system": "E. coli ΔtolC-pore harboring pPromrcsA-GFP-mobile", "assay": "Secondary screen of bioactive small molecules for rcsA bioreporter induction (agar diffusion)", "details": "100 nL of 10 mM stock spotted on MOPS minimal agar, visual analysis", "text": "To identify small molecules that act on the Gram-negative cell envelope, a set of 797 bioactive compounds that were previously identified to be antibacterial against efflux-deficient hyper-permeable E. coli (E. coli ΔtolC-pore) was screened to determine those that can induce the rcsA bioreporter on MOPS minimal medium. E. coli ΔtolC-pore is deficient in TolC-mediated drug efflux and expresses an outer-membrane pore encoded by fhuA,[46]^,[47] thereby allowing the capture of additional antibacterial chemical scaffolds that would normally be subject to efflux or are unable to traverse the E. coli outer membrane. As the compounds in the bioactive compound collection were all antibacterial at varying inhibitory concentrations, we conducted this secondary screen using a modified solid agar diffusion assay. This enabled testing of these antibacterial small molecules at a range of concentrations, which is often required to assess bioreporter induction. To that end, 100 nL aliquots of compounds from screening library plates were deposited onto discrete positions on MOPS agar impregnated with E. coli ΔtolC-pore harboring the reporter (Figure 3A). Compounds that induced reporter expression were determined through visual analysis of the screening plates following overnight growth by looking for signature green “halos” proximal to the zones of inhibition (Figure S4). […]"}, "[2]": {"test_system": "E. coli ΔtolC-pore", "assay": "MIC assay, E. coli ΔtolC-pore", "experimental": "(§1) For MIC assays, cultures of bacteria were grown in LB broth. Overnight cultures were diluted (1:100) into fresh LB media and grown to the mid-log phase of growth (OD600 ∼0.5). Subcultures were then normalized to an OD600 of 0.1, and diluted (1:5000) into assay media. Assay plates were then incubated for 18 h at 37°C, then OD600 was measured using a Biotek Neo plate reader."}, "[3]": {"test_system": "E. coli CO244", "assay": "MIC assay with or without SPR741, E. coli CO244", "details": "Escherichia coli", "experimental": "(§2) We next sought to determine whether we could achieve growth inhibition of wild-type E. coli using MAC-0452936 and an antibiotic adjuvant. […] To that end, we determined the MIC of MAC-0452936 against wild-type E. coli in the presence and absence of a sub-MIC concentration of SPR741 (Figure S8B). […] We leveraged this combination to characterize the spectrum of activity of MAC-0452936 against a panel of Gram-negative pathogens (Table 2). In the presence of 8 μg/mL SPR741, we observed MAC-0452936 activity against the clinical E. coli isolates C0244 and CFT073 at 2 μg/mL as well as against Salmonella Typhimurium SL1344 at 4 μg/mL.\nas §1"}, "[4]": {"test_system": "E. coli CFT073", "assay": "MIC assay with or without SPR741, E. coli CFT073", "details": "Escherichia coli", "experimental": "as §2, §1"}, "[5]": {"test_system": "E. coli and the Gram-positive organisms Staphylococcus aureus and Bacillus subtilis", "assay": "Growth inhibition in dose of E. coli and Gram-positive organisms", "details": "tested in dose against E. coli, S. aureus and B. subtilis", "experimental": "Of these 24 compounds, six were prioritized for further follow-up based on structural novelty relative to known antibacterial scaffolds and were tested in dose for growth inhibition of E. coli and the Gram-positive organisms Staphylococcus aureus and Bacillus subtilis (Figure S5). We hypothesized that compounds active against E. coli, but not the Gram-positive organisms, might target processes involved in the Gram-negative outer-membrane synthesis, many of which were identified as possible targets in our genetic screen. Importantly, these processes are either absent or not essential for growth in Gram-positive organisms, offering promise for narrow-spectrum applications.\nas §1"}, "[6]": {"test_system": "E. coli ΔtolC-pore", "assay": "Selection of spontaneous resistance mutants", "details": "E. coli ΔtolC-pore plated on LB agar with 4×, 8× and 16× MIC", "text": "The point mutations in Lgt were the only mutations identified in all five isolates (the Illumina sequencing and BreSeq alignment files have been made available in an online data repository, https://zenodo.org/records/11068394). Lgt catalyzes the essential transfer of diacylglycerol from phosphatidyl-glycerol (PG) to the terminal cysteine of pre-prolipoproteins[48] and was also identified as a possible target in our CRISPRi screen for rcsA bioreporter induction (Figures 2E and S3). When mapped to a recently solved crystal structure of E. coli Lgt,[49] the three distinct variants identified in our resistant clones (A37T, V109A, and G138A) were found on three proximal α-helices in the substrate binding pocket of the enzyme (Figure 4B).\nA culture of E. coli ΔtolC-pore was grown overnight in LB broth at 37°C with shaking, then, ∼6 × 10^8 CFU in 100 μL of LB broth was plated on LB agar plates containing 4, 8, or 16 μg/mL of MAC-0452936. Plates were then incubated at 37°C, and examined every 24 h for the emergence of resistant colonies. Colonies began to emerge after 48 h of incubation and were purified by restreaking on LB agar and LB agar containing the same concentrations of MAC-0452936 from which the colonies originally appeared. […] DNA samples were sequenced on the Illumina MiSeq platform (SeqCenter LLC) and reads were aligned to the E. coli BW25113 reference genome using Breseq[77] […]"}},
  "note": "Where two headings read alike, the source gives them in different places.",
  "data": [
    {"smiles": "COc1ccc(C(=O)O/N=C(\\c2cccs2)C(C)(C)C)cc1", "note": "[MAC-0452936, (Z)-2-Pivaloylthiophene O-(4-methoxybenzoyl) oxime]", "values": [
      {"measurement": "rcsA bioreporter (GFP) induction in secondary screen", "setting": "[1]", "result": "induced pPromrcsA-GFP"},
      {"measurement": "MIC, E. coli ΔtolC-pore", "setting": "[2]; LB, 18 h", "result": 0.5, "unit": "µg/mL"},
      {"measurement": "activity against E. coli ΔtolC-pore", "setting": "[2]; growth inhibition, in words", "result": "active"},
      {"measurement": "MIC", "setting": "[3]; CO244, read-out: MIC, E. coli CO244 + 8 μg/mL SPR741", "result": 2, "unit": "µg/mL"},
      {"measurement": "MIC", "setting": "[3]; CO244, read-out: MIC, E. coli CO244 + 0 μg/mL SPR741", "result": "> 64", "unit": "µg/mL"},
      {"measurement": "MIC", "setting": "[4]; CFT073, read-out: MIC, E. coli CFT073 + 8 μg/mL SPR741", "result": 2, "unit": "µg/mL"},
      {"measurement": "MIC", "setting": "[4]; CFT073, read-out: MIC, E. coli CFT073 + 0 μg/mL SPR741", "result": "> 64", "unit": "µg/mL"},
      {"measurement": "spectrum of growth inhibition, E. coli versus Gram-positive organisms", "setting": "[5]", "result": "specifically inhibit E. coli"},
      {"measurement": "frequency of resistance", "setting": "[6]", "result": "2 x 10^−8"},
      {"measurement": "resistant isolates identified", "setting": "[6]", "result": "five independent resistant isolates were generated"}
    ]}
  ]
}
